{"source": "patent US5891462A", "about": "“Composition for transdermal administration of an estrogen” (Permatec N.V., priority 1996, dated 1999)", "key": {"[1]": {"assay": "clinical", "set-up": "species or system postmenopausal women", "conditions": "human, in vivo", "procedure": "The duration of the study was 3 days, thus 3 dose application were applied. Blood samples were taken at 0 h (basal value), 2, 6, 12, 24, 30, 36, 48, 54, 60, and 72 hs after the initiation of the study. Estradiol and norethindrone serum levels were determined by time-resolved fluoroimmunoassay and by enzyme immunoassay respectively."}, "[2]": {"conditions": "transdermal; Balfour 1990; cited from earlier work"}, "[3]": {"conditions": "cited from earlier work; for Enhancement factor: normalized skin permeation rate with/without enhancer"}, "[4]": {"conditions": "cited from earlier work"}, "[5]": {"assay": "In vitro permeation through abdominal guinea pig skin (vertical diffusion cell, HPLC)", "format": "in vitro ADME", "conditions": "for penetration enhancement at early and late times (in words): early 8 hs, late 16, 24 hs, occlusive", "description": "FIG. 3 an apparatus \"Hanson P/N 57-VC\" (vertical diffusion cell) is schematically represented 3 wherein:\nThe term \"occlusive condition\" used for the experimental tests carried out with the apparatus described in FIG. 3, means that the donor chamber (2) of the diffusion is closed by the top plate (3) i.e. not in communication with the external air. On the contrary the term \"non occlusive condition\" means that the top plate (3) has a hole allowing the free interaction between the formulation to be tested and the external air permitting the evaporation of the volatile solvents.\nFurthermore, in vitro permeation experiments through abdominal guinea pig skin was made using the diffusion chamber that is schematically shown in FIG. 3.\nFemale guinea pigs, 8 to 16 months of age were shaved on their abdominal skin 72 hs. before sacrifice by cervical dislocation. […] A section of full thickness abdominal skin was surgically excised and mounted between the sections of a vertical diffusion cell having 1.77 sqcm of surface area, the epidermal facing up. A given amount of the pharmaceutical formulations exemplified above were spread over the epidermal layer whilst the dermal layer contact with a solution of sodium lauryl sulfate (SDS), at 34° C.\nThe experiments were conducted in two different conditions: in occlusive condition with a glass stopper, which avoid the evaporating of the volatile solvents, and in non occlusive condition, whereas the stopper used allow the evaporation of the volatile solvents."}, "[6]": {"conditions": "Whitehead 1990; cited from earlier work"}, "[7]": {"conditions": "enhancer: Decylmethyl sulfoxide"}}, "note": "“And” between values parts separate entries of the source, which are not always exact repeats. Identical values can stand only once. “Also recorded” adds a separate entry of the source. Like-named read-outs stand apart in the source and are kept apart here."}
{"molecule": "C[C@]12CC[C@@H]3c4ccc(O)cc4CC[C@H]3[C@@H]1CC[C@@H]2O", "note": "[Estradiol, 17-β-estradiol]", "values": [{"measurement": "Serum Levels of Estradiol (mean)", "setting": "[1]", "result": "6,37 pg/ml"}, {"measurement": "concentration at 2 h", "setting": "[1]; topical or ocular", "result": 0.0328, "unit": "ng/mL"}, {"measurement": "concentration at 6 h", "setting": "[1]; topical or ocular", "result": 0.0205, "unit": "ng/mL"}, {"measurement": "concentration at 12 h", "setting": "[1]; topical or ocular", "result": 0.0268, "unit": "ng/mL"}, {"measurement": "concentration at 24 h", "setting": "[1]; topical or ocular", "result": 0.0276, "unit": "ng/mL"}, {"measurement": "concentration at 30 h", "setting": "[1]; topical or ocular", "result": 0.0393, "unit": "ng/mL"}, {"measurement": "concentration at 36 h", "setting": "[1]; topical or ocular", "result": 0.0303, "unit": "ng/mL"}, {"measurement": "concentration at 48 h", "setting": "[1]; topical or ocular", "result": 0.0359, "unit": "ng/mL"}, {"measurement": "concentration at 54 h", "setting": "[1]; topical or ocular", "result": 0.0652, "unit": "ng/mL"}, {"measurement": "concentration at 60 h", "setting": "[1]; topical or ocular", "result": 0.0487, "unit": "ng/mL"}, {"measurement": "concentration at 72 h", "setting": "[1]; topical or ocular", "result": 0.0437, "unit": "ng/mL"}, {"measurement": "effects on gonadotrophins, vaginal epithelium, bone resorption and menopausal symptoms", "setting": "[2]", "result": "comparable to those of oral and subcutaneous estrogens"}, {"measurement": "undesirable effects of oral estrogen on hepatic metabolism", "setting": "[2]", "result": "avoided"}, {"measurement": "Enhancement factor", "setting": "[3]; enhancer: Azone", "result": 20.17}, {"measurement": "Enhancement factor", "setting": "[3]; [7]", "result": 12.59}, {"measurement": "Enhancement factor", "setting": "[3]; enhancer: Propyl myristate", "result": 9.33}, {"measurement": "Enhancement factor", "setting": "[3]; enhancer: Propyl oleate", "result": 14.62}, {"measurement": "therapeutically effective daily dose of estrogen", "setting": "[4]; Powers 1985", "result": "40 to 50", "unit": "µg/day"}, {"measurement": "serum levels of estradiol required for clinical efficacy", "setting": "[4]; reviewed by Powers", "result": "40 to 60", "unit": "pg/mL"}]}
{"molecule": "C[C@]12CCC(=O)C=C1CC[C@@H]1[C@@H]2[C@@H](O)C[C@@]2(C)[C@H]1CC[C@]2(O)C(=O)CO", "note": "[Hydrocortisone]", "values": [{"measurement": "Enhancement factor", "setting": "[3]; enhancer: Azone", "result": 61.3}, {"measurement": "Enhancement factor", "setting": "[3]; [7]", "result": 25.23}, {"measurement": "Enhancement factor", "setting": "[3]; enhancer: Propyl myristate", "result": 4.57}, {"measurement": "Enhancement factor", "setting": "[3]; enhancer: Propyl oleate", "result": 5.01}]}
{"molecule": "COc1ccc2c(c1)c(CC(=O)O)c(C)n2C(=O)c1ccc(Cl)cc1", "note": "[Indomethacin]", "values": [{"measurement": "Enhancement factor", "setting": "[3]; enhancer: Azone", "result": 14.49}, {"measurement": "Enhancement factor", "setting": "[3]; [7]", "result": 15.67}, {"measurement": "Enhancement factor", "setting": "[3]; enhancer: Propyl myristate", "result": 3.77}, {"measurement": "Enhancement factor", "setting": "[3]; enhancer: Propyl oleate", "result": 4.67}]}
{"molecule": "C#C[C@]1(O)CC[C@H]2[C@@H]3CCC4=CC(=O)CC[C@@H]4[C@H]3CC[C@@]21C", "note": "[Norethindrone, norethindrone]", "values": [{"measurement": "Serum Levels of Norethindrone (mean)", "setting": "[1]", "result": 0.093, "unit": "ng/mL"}, {"measurement": "Serum Levels of Norethindrone (mean)", "setting": "[1]; topical or ocular, 2 h", "result": 1.407, "unit": "ng/mL"}, {"measurement": "Serum Levels of Norethindrone (mean)", "setting": "[1]; topical or ocular, 6 h", "result": 1.394, "unit": "ng/mL"}, {"measurement": "Serum Levels of Norethindrone (mean)", "setting": "[1]; topical or ocular, 12 h", "result": 1.908, "unit": "ng/mL"}, {"measurement": "Serum Levels of Norethindrone (mean)", "setting": "[1]; topical or ocular, 24 h", "result": 2.695, "unit": "ng/mL"}, {"measurement": "Serum Levels of Norethindrone (mean)", "setting": "[1]; topical or ocular, 30 h", "result": 3.461, "unit": "ng/mL"}, {"measurement": "Serum Levels of Norethindrone (mean)", "setting": "[1]; topical or ocular, 36 h", "result": 3.096, "unit": "ng/mL"}, {"measurement": "Serum Levels of Norethindrone (mean)", "setting": "[1]; topical or ocular, 48 h", "result": 3.713, "unit": "ng/mL"}, {"measurement": "Serum Levels of Norethindrone (mean)", "setting": "[1]; topical or ocular, 54 h", "result": 5.61, "unit": "ng/mL"}, {"measurement": "Serum Levels of Norethindrone (mean)", "setting": "[1]; topical or ocular, 60 h", "result": 4.904, "unit": "ng/mL"}, {"measurement": "Serum Levels of Norethindrone (mean)", "setting": "[1]; topical or ocular, 72 h", "result": 4.899, "unit": "ng/mL"}]}
{"molecule": "CC(=O)[C@H]1CC[C@H]2[C@@H]3CCC4=CC(=O)CC[C@]4(C)[C@H]3CC[C@]12C", "note": "[Progesterone]", "values": [{"measurement": "Enhancement factor", "setting": "[3]; enhancer: Azone", "result": 5.96}, {"measurement": "Enhancement factor", "setting": "[3]; [7]", "result": 11.04}, {"measurement": "Enhancement factor", "setting": "[3]; enhancer: Propyl myristate", "result": 4.56}, {"measurement": "Enhancement factor", "setting": "[3]; enhancer: Propyl oleate", "result": 5.36}]}
{"molecule": "CCCCCC(=O)O", "note": "[caproic acid]", "values": [{"measurement": "enhancement of skin permeation of progesterone by fatty acids", "setting": "[3]; progesterone, saturated fatty acid chain length, Chien", "result": "major enhancement effect"}]}
{"molecule": "CCCCCCCCCC(=O)O", "note": "[decanoic acid]", "values": [{"measurement": "enhancement for estradiol by fatty acids", "setting": "[3]; estradiol, U.S. Pat. No. 5,145,682", "result": "better enhancer for estradiol"}]}
{"molecule": "CCOCCOCCO", "note": "[diethylene glycol monoethyl ether]", "values": [{"measurement": "penetration enhancement at early and late times (in words)", "setting": "[5]", "result": "excellent penetration enhancer at late times (16, 24 hs); also recorded: good penetration enhancer for late times; also recorded: enhances the permeation rates of the hormones in the later times"}]}
{"molecule": "CCCCCCCCCCCC(=O)O", "note": "[lauric acid]", "values": [{"measurement": "enhancer comparison for naloxone", "setting": "[3]; naloxone, Brian and Walters", "result": "better enhancer than lauryl alcohol"}]}
{"molecule": "CCCCCCCCCCCCO", "note": "[lauryl alcohol]", "values": [{"measurement": "norethindrone acetate permeation enhancement (in words)", "setting": "[5]; comparison of enhancers", "result": "two folds higher; also recorded: greater; also recorded: highest enhancement factor for norethindrone acetate; also recorded: most adequate enhancer"}, {"measurement": "penetration enhancement at early and late times (in words)", "setting": "[5]", "result": "good penetration enhancer at early time (8 hs); also recorded: good penetration enhancer for early times; also recorded: higher enhancement factor in the early times"}]}
{"molecule": "CCCCCCCCCCO", "note": "[n-decanol]", "values": [{"measurement": "norethindrone acetate permeation enhancement (in words)", "setting": "[5]; comparison of enhancers", "result": "greater"}]}
{"molecule": "C#C[C@]1(OC(C)=O)CC[C@H]2[C@@H]3CCC4=CC(=O)CC[C@@H]4[C@H]3CC[C@@]21C", "note": "[norethindrone acetate]", "values": [{"measurement": "transdermal dose required to oppose estrogen hyperstimulation of the endometrium / therapeutically effective daily dose of progestin", "setting": "[6]", "result": "200 to 300 µg/day and 200 to 250 µg/day"}]}
{"molecule": "CCCCCCCC/C=C\\CCCCCCCCO", "note": "[oleyl alcohol]", "values": [{"measurement": "estradiol permeation enhancement (in words)", "setting": "[5]; comparison of enhancers", "result": "highest enhancement factor for estradiol"}]}
